Results published in publication PMC8268575 (International Journal of Molecular Sciences, 2021).
“Also recorded” adds a separate entry of the source.

How the values were obtained:
HUVEC = experiment: Substrate cleavage in HUVEC, supernatant analysed by MALDI-TOF/TOF; format: in vitro ADME, human; conditions: 100 µM substrate
Protocol: (§1) The experiment was independently conducted 4 times. […] The supernatants were desalted and concentrated by use of C18 ZipTips (Merck-Millipore, Burlington, MA, USA) and eluted directly on the MALDI target in 70% acetonitrile/0.1% TFA. Subsequently, a MALDI matrix solution of 2.5 mg/mL α-cyano-4-hydroxycinnamic acid in 70% acetonitrile/0.1% TFA was applied on each spot, air-dried at room temperature, and the target was introduced into a 4800 plus MALDI TOF/TOF^TM Analyzer. Mass spectrometry (MS) spectra (mass range: 600–4000 Da) were acquired in positive reflector mode with a laser intensity of 5000. To confirm the identity of the most important peptides, MS/MS spectra were generated by use of collision induced dissociation with a laser intensity of 5500. Calibration was done during analysis using the 6-peptide mixture (AB Sciex, Framingham, MA, USA). Mass spectra were generated by use of the 4000 Series Explorer and analyzed by mMas. […] The ratio of the peak intensity of the cleaved substrate to the peak intensity of the intact substrate is an indication for the C-terminal cleavage of the substrates. To check for additional cleavage sites, a search for other product peaks was completed. Statistical analysis was performed using SPSS software version 27 (IBM). Two-way ANOVA analysis was conducted to examine the effect of the two independent variables (treatment duration and treatment option) on the ratio of the peak intensities.

HAoEC = experiment: Substrate cleavage in HAoEC, supernatant analysed by MALDI-TOF/TOF; format: in vitro ADME, human
Protocol: as §1

recombinant human PREP = target: T1, recombinant human PREP (Homo sapiens, UniProt P48147); experiment: Cleavage by recombinant PREP, MALDI-TOF/TOF; conditions: pH 7.4 (0.1 M potassium phosphate, 1 mM EDTA, 5 mM DTT), 100 µM substrate, 0 s to 1 h
T1 sequence (P48147 1-710): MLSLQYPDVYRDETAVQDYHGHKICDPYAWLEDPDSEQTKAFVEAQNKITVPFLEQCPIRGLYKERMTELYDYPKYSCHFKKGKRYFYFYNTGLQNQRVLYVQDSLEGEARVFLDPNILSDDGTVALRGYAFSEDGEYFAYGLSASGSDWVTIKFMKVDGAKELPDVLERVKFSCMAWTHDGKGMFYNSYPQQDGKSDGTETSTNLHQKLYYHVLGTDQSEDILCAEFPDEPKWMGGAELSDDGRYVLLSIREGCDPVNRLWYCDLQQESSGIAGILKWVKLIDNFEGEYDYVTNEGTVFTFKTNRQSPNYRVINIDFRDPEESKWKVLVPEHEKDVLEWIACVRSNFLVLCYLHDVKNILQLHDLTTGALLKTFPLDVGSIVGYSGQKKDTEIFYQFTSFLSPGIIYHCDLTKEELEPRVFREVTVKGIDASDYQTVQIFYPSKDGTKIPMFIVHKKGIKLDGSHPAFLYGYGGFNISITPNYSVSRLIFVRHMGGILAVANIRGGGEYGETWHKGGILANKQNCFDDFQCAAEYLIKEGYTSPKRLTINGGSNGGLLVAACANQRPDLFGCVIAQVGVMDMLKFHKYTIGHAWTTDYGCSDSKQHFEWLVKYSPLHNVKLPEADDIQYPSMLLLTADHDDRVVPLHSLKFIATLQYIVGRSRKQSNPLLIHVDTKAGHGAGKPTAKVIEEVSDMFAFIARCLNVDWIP
Protocol: Supplementary Material File S3. Cleavage by recombinant PREP
Recombinant human PREP, expressed in BL21 (DE3) cells as previously described, was […]
(Laboratory for Medicinal Chemistry, University of Antwerp) or vehicle control at pH 7.4 (0.1 M potassium phosphate, 1 mM EDTA and 5 mM DTT). 100 μM substrate ((pyr)-apelin-13, (pyr)-apelin-13(1-12), Ang II or α-MSH 1-13) or vehicle control (PBS) was added. The reaction was stopped by acidification (pH<3) with 0.1% TFA after different time periods (0 s, 30 s, 1 min, 5 min, 15 min, 30 min or 1 h) and samples were stored at -80 °C.
A search for product peaks of the different peptides was conducted.
1. Van Elzen, R.; Schoenmakers, E.; Brandt, I.; Van Der Veken, P.; Lambeir, A.M.
Ligand-induced conformational changes in prolyl oligopeptidase: A kinetic approach.

[1] = target: T2, secreted PRCP in HUVEC supernatant (Homo sapiens, UniProt P42785); experiment: Incubation of (pyr)-apelin-13 with 24 h cellular supernatant of HUVEC; format: in vitro ADME; conditions: 100 µM substrate
T2 construct: endogenous in cells; host or cells: HUVEC and HAoEC (cell lysate and culture supernatant)
T2 sequence (P42785 46-496): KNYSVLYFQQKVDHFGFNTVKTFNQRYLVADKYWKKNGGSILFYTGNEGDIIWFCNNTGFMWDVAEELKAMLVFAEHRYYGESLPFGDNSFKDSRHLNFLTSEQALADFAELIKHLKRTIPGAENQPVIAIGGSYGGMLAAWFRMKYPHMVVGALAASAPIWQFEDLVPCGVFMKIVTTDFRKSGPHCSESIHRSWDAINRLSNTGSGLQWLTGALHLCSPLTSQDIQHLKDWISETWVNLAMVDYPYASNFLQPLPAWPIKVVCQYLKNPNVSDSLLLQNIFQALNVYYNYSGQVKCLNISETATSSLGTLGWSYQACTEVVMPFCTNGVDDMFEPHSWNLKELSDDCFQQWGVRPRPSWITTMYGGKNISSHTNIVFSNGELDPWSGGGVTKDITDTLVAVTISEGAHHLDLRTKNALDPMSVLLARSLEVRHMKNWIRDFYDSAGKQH
Protocol: Supplementary Material File S4. Incubation of (pyr)-apelin-13 with cellular supernatant HUVEC were seeded at a density of 10 000 cells per well in 96-well plates in 100 µL full medium. After 24 h, medium was replaced by assay medium and the cells were incubated for another 24 h at 37 °C in 5% CO2. After 24 h, cell supernatants were harvested and incubated with vehicle control (1% DMSO) or 1 µM compound 8o for 15 min at 37 °C. Then, 100 μM (pyr)-apelin-13 or vehicle control (PBS) was added. The reaction was stopped by acidification (pH<3) with 0.1% TFA after 1 h and the samples were stored at -80 °C until further processing.
The experiment was independently conducted 4 times. To detect the cleavage of (pyr)-apelin-13 (m/z 1533.8), the samples were analysed by MALDI-TOF/TOF.
However, comparing this experiment with the initial experiment where (pyr)-apelin-13 was added to the cells for 24 h (Figure 1 of main manuscript), much less (pyr)-apelin-13 was […]
terminal (pyr)-apelin-13 cleavage seen in the initial experiment.
Figure S4.1: Incubation of 24 h cellular supernatant with (pyr)-apelin-13 during 1 h. (Pyr)- […]
(1 picture or pasted object on this page, not shown here)

[2] = plasma; cited from earlier work
Description: Although (pyr)-apelin-13 has increased stability and a longer plasma half-life in comparison with the non-pyroglutamated isoforms, it still has a short half-life of only minutes. Angiotensin-converting enzyme 2 (ACE2, EC 3.4.17.23) was always considered to be the only enzyme responsible for the hydrolysis of the C-terminal Phe of (pyr)-apelin-13 [28, 29, 30], until we identified PRCP as an apelin-cleaving enzyme in 2016, during the search for new PRCP-substrates based on amino acid sequence. Although many efforts were made to elucidate the importance of this C-terminal P ...

With `CSCC[C@H](NC(=O)[C@@H]1CCCN1C(=O)CNC(=O)[C@H](CCCCN)NC(=O)[C@H](Cc1cnc[nH]1)NC(=O)[C@H](CO)NC(=O)[C@H](CC(C)C)NC(=O)[C@H](CCCNC(=N)N)NC(=O)[C@@H]1CCCN1C(=O)[C@H](CCCNC(=N)N)NC(=O)[C@@H]1CCC(=O)N1)C(=O)N1CCC[C@H]1C(=O)N[C@@H](Cc1ccccc1)C(=O)O` [(pyr)-apelin-13] the “C-terminal cleavage of (pyr)-apelin-13 to (pyr)-apelin-13(1–12), ratio of peak intensities in the supernatant” value (HUVEC; HUVEC 10,000 cells/well, assay medium (5% full medium in HBSS), 37 °C, 0/2/4/8/24 h, all treatment groups, MALDI-TOF/TOF, n = 4) was “significant after 24 h”, the “Enzyme dependence of cleavage of (pyr)-apelin-13 to (pyr)-apelin-13(1–12)” value (HUVEC; HUVEC pre-treated 15 min with 1 µM compound 8o (PRCP) and/or 1 µM DX600 (ACE2), 24 h, n = 4) was “PRCP-dependent” and the “Cleavage of (pyr)-apelin-13 to (pyr)-apelin-13(1-6)” value (HUVEC; HUVEC, MALDI-TOF/TOF) was “could not be detected”. The “C-terminal cleavage of (pyr)-apelin-13 to (pyr)-apelin-13(1–12), ratio of peak intensities in the supernatant” value (HAoEC; HAoEC 10,000 cells/well, 100 µM substrate, assay medium (5% full medium in HBSS), 37 °C, 0/2/4/8/24 h, all treatment groups, MALDI-TOF/TOF, n = 4) was “significant after 24 h”, the “Enzyme dependence of cleavage of (pyr)-apelin-13 to (pyr)-apelin-13(1–12)” value (HAoEC; HAoEC pre-treated 15 min with 1 µM compound 8o (PRCP) and/or 1 µM DX600 (ACE2), 100 µM substrate, 24 h, n = 4) was “PRCP- and ACE2-dependent” and the “Involvement of PRCP and ACE2 in cleavage of (pyr)-apelin-13 to (pyr)-apelin-13(1-6)” value (HAoEC; HAoEC, 1 µM compound 8o and/or 1 µM DX600, data not shown) was “none of the studied enzymes were involved”. For the same compound, the “Cleavage of (pyr)-apelin-13 to (pyr)-apelin-13(1-6)” value (HAoEC; HAoEC, all treatment groups, 100 µM substrate, MALDI-TOF/TOF, data not shown) was “significant from 8 h onwards”, the “C-terminal cleavage of (pyr)-apelin-13 to (pyr)-apelin-13(1–12), earliest observable time” value (HAoEC; control, PRCP-inhibited and ACE2-inhibited HAoEC, 100 µM substrate, 37 °C, MALDI-TOF/TOF, n = 4) was “already observable after 8 h” and the “Cleavage by recombinant human PREP” value (recombinant human PREP) was “did not cleave; also recorded: could not observe”. The “C-terminal cleavage of (pyr)-apelin-13 in cell-free 24 h HUVEC supernatant” value ([1]; 1 h, 37 °C, MALDI-TOF/TOF, 4 independent experiments) was “cleaved at its C-terminus after 1 h”, the “Extent of PRCP-mediated cleavage in cell-free HUVEC supernatant compared with the cellular experiment” value ([1]; 1 h versus 24 h with cells) was “to a much lesser extent” and the half-life [2] was “only minutes”.
